According to patent US20220235049A1, “SUBSTITUTED PYRROLO [2, 3-b] PYRIDINE AND PYRAZOLO [3,4-b] PYRIDINE DERIVATIVES AS PROTEIN KINASE INHIBITORS” (Fochon Pharmaceuticals, Ltd., priority 2019, published 2022):

Tested on: DOHH2 cells
Assay: Cell proliferation assay in DOHH2 cells (MTS)
Assay type: cell-based
Description: To investigate whether a compound is able to inhibit the activity of BTK in cells, a mechanism-based assay using DOHH2 (DSMZ catalog #: ACC47) cell was developed. In this assay, inhibition of BTK was detected by the inhibition of DOHH2 cells proliferation. Cells were collected and plated onto 96-well plates at the optimized cell density (5000 cells/well). Plates were incubated at 37° C., with 5% CO2 for 4 h. Compounds were serially diluted and added to the plates with the final concentrations as 10000, 3333.3, 1111.1, 370.4, 123.5, 41.2, 13.7, 4.6 and 1.5 nM. Plates were incubated at 37° C., with 5% CO2 for 120 h. An aliquot of 20 μL MTS/100 μL medium mixture solution were added to each well and the plates were incubated for exactly 2 h. The reaction was stopped by adding 25 μL 10% SDS to each well. The absorbance was measured by a microplate reader at 490 nm and 650 nm (reference wavelength). IC50 was calculated using GraphPad Prism 5.0.
Select compounds prepared as described above were assayed according to the biological procedures described herein.

Compound | IC50 (Homo sapiens, DOHH-2, 120 h) [nM] | IC50 (120 h) [nM]
O=C(c1ccc(Oc2ccccc2)cc1Cl)c1c[nH]c2ncc(F)c(N[C@@H]3CC[C@@H](CO)OC3)c12 [Example 6, (2-chloro-4-phenoxyphenyl)(5-fluoro-4-(((3R,6S)-6-(hydroxymethyl)tetrahydro-2H-pyran-3-yl)amino)-1H-pyrrolo[2,3-b]pyridin-3-yl)methanone] | 89 | 
CCOc1cnc2[nH]cc(C(=O)c3c(C)cc(Oc4ccccc4F)cc3F)c2c1N[C@@H]1CC[C@@H](CO)OC1 [Example 135, (5-ethoxy-4-(((3R,6S)-6-(hydroxymethyl)tetrahydro-2H-pyran-3-yl)amino)-1H-pyrrolo[2,3-b]pyridin-3-yl)(2-fluoro-4-(2-fluorophenoxy)-6-methylphenyl)methanone] | 1 | 
O=C(c1ccc(Oc2ccccc2F)cc1F)c1c[nH]c2ncc(Cl)c(N[C@@H]3CC[C@@H](CO)OC3)c12 [Example 99, (5-chloro-4-(((3R,6S)-6-(hydroxymethyl)tetrahydro-2H-pyran-3-yl)amino)-1H-pyrrolo[2,3-b]pyridin-3-yl)(2-fluoro-4-(2-fluorophenoxy)phenyl)methanone] | 24 | 
Cc1cc(Oc2ccccc2)ccc1C(=O)c1c[nH]c2ncc(C#N)c(N[C@@H]3CC[C@@H](CO)OC3)c12 [Example 11, 4-(((3R,6S)-6-(hydroxymethyl)tetrahydro-2H-pyran-3-yl)amino)-3-(2-methyl-4-phenoxybenzoyl)-1H-pyrrolo[2,3-b]pyridine-5-carbonitrile] | 60 | 
O=C(c1ccc(Oc2ccccc2)cc1F)c1c[nH]c2ncc(F)c(N[C@@H]3CC[C@@H](CO)OC3)c12 [Example 58, (5-fluoro-4-(((3R,6S)-6-(hydroxymethyl)tetrahydro-2H-pyran-3-yl)amino)-1H-pyrrolo[2,3-b]pyridin-3-yl)(2-fluoro-4-phenoxyphenyl)methanone] | 23 | 
O=C(c1ccc(Oc2ccccc2F)cc1Cl)c1c[nH]c2ncc(F)c(N[C@@H]3CC[C@@H](CO)OC3)c12 [Example 125, (2-chloro-4-(2-fluorophenoxy)phenyl)(5-fluoro-4-(((3R,6S)-6-(hydroxymethyl)tetrahydro-2H-pyran-3-yl)amino)-1H-pyrrolo[2,3-b]pyridin-3-yl)methanone] | 1 | 
Cc1cc(Oc2ccccc2)ccc1C(=O)c1c[nH]c2ncc(F)c(N[C@@H]3CC[C@@H](CO)OC3)c12 [Example 15, (5-fluoro-4-(((3R,6S)-6-(hydroxymethyl)tetrahydro-2H-pyran-3-yl)amino)-1H-pyrrolo[2,3-b]pyridin-3-yl)(2-methyl-4-phenoxyphenyl)methanone] | 85 | 
O=C(c1ccc(Oc2ccccc2F)cc1F)c1c[nH]c2nccc(N[C@@H]3CC[C@@H](CO)OC3)c12 [Example 102, (2-fluoro-4-(2-fluorophenoxy)phenyl)(4-(((3R,6S)-6-(hydroxymethyl)tetrahydro-2H-pyran-3-yl)amino)-1H-pyrrolo[2,3-b]pyridin-3-yl)methanone] | 7 | 
Cc1cc(Oc2cccc(F)c2)ccc1C(=O)c1c[nH]c2nccc(N[C@@H]3CC[C@@H](CO)OC3)c12 [Example 47, (4-(3-fluorophenoxy)-2-methylphenyl)(4-(((3R,6S)-6-(hydroxymethyl)tetrahydro-2H-pyran-3-yl)amino)-1H-pyrrolo[2,3-b]pyridin-3-yl)methanone] | 46 | 
N#Cc1cnc2[nH]cc(C(=O)c3c(F)cc(Oc4ccccc4)cc3F)c2c1N[C@@H]1CC[C@@H](CO)OC1 [Example 45, 3-(2,6-difluoro-4-phenoxybenzoyl)-4-(((3R,6S)-6-(hydroxymethyl)tetrahydro-2H-pyran-3-yl)amino)-1H-pyrrolo[2,3-b]pyridine-5-carbonitrile] | 57 | 
O=C(c1ccc(Oc2ccccc2F)cc1)c1c[nH]c2ncc(F)c(N[C@@H]3CC[C@@H](CO)OC3)c12 [Example 114, (5-fluoro-4-(((3R,6S)-6-(hydroxymethyl)tetrahydro-2H-pyran-3-yl)amino)-1H-pyrrolo[2,3-b]pyridin-3-yl)(4-(2-fluorophenoxy)phenyl)methanone] | 12 | 
COc1cnc2[nH]cc(C(=O)c3ccc(Oc4ccccc4F)cc3F)c2c1N[C@@H]1CC[C@@H](CNC(C)=O)OC1 [Example 160, N-(((2S,5R)-5-((3-(2-fluoro-4-(2-fluorophenoxy)benzoyl)-5-methoxy-1H-pyrrolo[2,3-b]pyridin-4-yl)amino)tetrahydro-2H-pyran-2-yl)methyl)acetamide] | 1 | 
COc1cnc2[nH]cc(C(=O)c3ccc(Oc4ccccc4F)cc3Cl)c2c1N[C@@H]1CC[C@@H](CO)OC1 [Example 77, (2-chloro-4-(2-fluorophenoxy)phenyl)(4-(((3R,6S)-6-(hydroxymethyl)tetrahydro-2H-pyran-3-yl)amino)-5-methoxy-1H-pyrrolo[2,3-b]pyridin-3-yl)methanone] | 1 | 
O=C(c1ccc(Oc2c(F)cccc2F)cc1)c1c[nH]c2ncc(Cl)c(N[C@@H]3CC[C@@H](CO)OC3)c12 [Example 190, (5-chloro-4-(((3R,6S)-6-(hydroxymethyl)tetrahydro-2H-pyran-3-yl)amino)-1H-pyrrolo[2,3-b]pyridin-3-yl)(4-(2,6-difluorophenoxy)phenyl)methanone] | 11 | 
Cc1cc(Oc2ccccc2)ccc1C(=O)c1c[nH]c2ncc(C#N)c(N[C@@]34COC(CO)[C@@H]3C4)c12 (single isomer, unassigned) [Example 20] |  | 20
Cc1cc(Oc2ccccc2F)ncc1C(=O)c1c[nH]c2nccc(N[C@@H]3CC[C@@H](CO)OC3)c12 [Example 103, (6-(2-fluorophenoxy)-4-methylpyridin-3-yl)(4-(((3R,6S)-6-(hydroxymethyl)tetrahydro-2H-pyran-3-yl)amino)-1H-pyrrolo[2,3-b]pyridin-3-yl)methanone] | 39 | 
N#Cc1cnc2[nH]cc(C(=O)c3ccc(Oc4ccccc4)c(Cl)c3Cl)c2c1N[C@@H]1CC[C@@H](CO)OC1 [Example 37, 3-(2,3-dichloro-4-phenoxybenzoyl)-4-(((3R,6S)-6-(hydroxymethyl)tetrahydro-2H-pyran-3-yl)amino)-1H-pyrrolo[2,3-b]pyridine-5-carbonitrile] | 48 | 
Cc1cc(Oc2ccccc2)ccc1C(=O)c1c[nH]c2ncc(C#N)c(N[C@@]34COC(CO)[C@@H]3C4)c12 (single isomer, unassigned) [Example 19] |  | 88
COc1cnc2[nH]cc(C(=O)c3ccc(Oc4c(F)cccc4F)cc3F)c2c1N[C@@H]1CC[C@@H](CO)OC1 [Example 192, (4-(2,6-difluorophenoxy)-2-fluorophenyl)(4-(((3R,6S)-6-(hydroxymethyl)tetrahydro-2H-pyran-3-yl)amino)-5-methoxy-1H-pyrrolo[2,3-b]pyridin-3-yl)methanone] | 8 | 
N#Cc1cnc2[nH]cc(C(=O)c3ccc(Oc4ccccc4F)cc3)c2c1N[C@@H]1CC[C@@H](CO)OC1 [Example 88, 3-(4-(2-fluorophenoxy)benzoyl)-4-(((3R,6S)-6-(hydroxymethyl)tetrahydro-2H-pyran-3-yl)amino)-1H-pyrrolo[2,3-b]pyridine-5-carbonitrile] | 99 | 
Cc1cc(Oc2cccc(F)c2)ccc1C(=O)c1c[nH]c2ncc(C#N)c(N[C@@H]3CC[C@@H](CO)OC3)c12 [Example 49, 3-(4-(3-fluorophenoxy)-2-methylbenzoyl)-4-(((3R,6S)-6-(hydroxymethyl)tetrahydro-2H-pyran-3-yl)amino)-1H-pyrrolo[2,3-b]pyridine-5-carbonitrile] | 100 | 
COC(=O)NC[C@@H]1CC[C@@H](Nc2c(OC)cnc3[nH]cc(C(=O)c4ccc(Oc5ccccc5F)cc4F)c23)CO1 [Example 163, methyl (((2S,5R)-5-((3-(2-fluoro-4-(2-fluorophenoxy)benzoyl)-5-methoxy-1H-pyrrolo[2,3-b]pyridin-4-yl)amino)tetrahydro-2H-pyran-2-yl)methyl)carbamate] | 45 | 
O=C(c1ccc(Oc2ccccc2F)cc1F)c1c[nH]c2ncc(F)c(N[C@@H]3CC[C@@H](CO)OC3)c12 [Example 115, (5-fluoro-4-(((3R,6S)-6-(hydroxymethyl)tetrahydro-2H-pyran-3-yl)amino)-1H-pyrrolo[2,3-b]pyridin-3-yl)(2-fluoro-4-(2-fluorophenoxy)phenyl)methanone] | 5 | 
Cc1cc(Oc2ccccc2)ccc1C(=O)c1c[nH]c2nccc(N[C@@H]3CC[C@@H](CO)OC3)c12 [Example 13, (4-(((3R,6S)-6-(hydroxymethyl)tetrahydro-2H-pyran-3-yl)amino)-1H-pyrrolo[2,3-b]pyridin-3-yl)(2-methyl-4-phenoxyphenyl)methanone] | 19 | 
CCOc1cnc2[nH]cc(C(=O)c3ccc(Oc4ccccc4F)cc3F)c2c1N[C@@]12CO[C@H](CO)C1C2 (single isomer, unassigned) [Example 173] |  | 7
Cc1cc(Oc2ccccc2F)ccc1C(=O)c1c[nH]c2ncc(Cl)c(N[C@@H]3CC[C@@H](CO)OC3)c12 [Example 87, (5-chloro-4-(((3R,6S)-6-(hydroxymethyl)tetrahydro-2H-pyran-3-yl)amino)-1H-pyrrolo[2,3-b]pyridin-3-yl)(4-(2-fluorophenoxy)-2-methylphenyl)methanone] | 17 | 
O=C(c1ccc(Oc2ccccc2)cc1)c1c[nH]c2nccc(N[C@@H]3CC[C@@H](CO)OC3)c12 [Example 28, (4-(((3R,6S)-6-(hydroxymethyl)tetrahydro-2H-pyran-3-yl)amino)-1H-pyrrolo[2,3-b]pyridin-3-yl)(4-phenoxyphenyl)methanone] | 32 | 
COc1cnc2[nH]cc(C(=O)c3ccc(Oc4ccccc4F)cc3C)c2c1N[C@@]12CO[C@H](CO)C1C2 (single isomer, unassigned) [Example 166] | 21 | 
